Measurements taken from ChEMBL document CHEMBL3124816, “Preparation and optimization of new 4-(2-(indolin-1-yl)-2-oxoethyl)-2-morpholinothiazole-5-carboxylic acid and amide derivatives as potent and selective PI3Kβ inhibitors” (Bioorg Med Chem Lett, 2014).
pIC50: −log10 of the molar value. Values after ≈ are worked out from the molar mass of the structure shown. Active and inactive are the calls of the source. The calls are words filed in the database; no cut-off is given here.

Experiments:
[1] = biological target: T1, Phosphatidylinositol 4,5-bisphosphate 3-kinase catalytic subunit beta isoform (Homo sapiens, UniProt P42338); assay: Inhibition of PI3Kbeta in human PTEN-deficient PC3 cells assessed as Akt phosphorylation at S473; type: cell-based, PC-3
[2] = biological target: T1, Phosphatidylinositol 4,5-bisphosphate 3-kinase catalytic subunit beta isoform; assay: Inhibition of human PI3Kbeta after 15 mins
[3] = biological target: Phosphatidylinositol 4,5-bisphosphate 3-kinase catalytic subunit alpha isoform (Homo sapiens, UniProt P42336); assay: Inhibition of human PI3Kalpha after 15 mins
[4] = (§1) Apparent permeability of the compound in human Caco2 cells; type: ADME, cell-based; conditions: Caco-2
[5] = Thermodynamic solubility of the compound in 50 mM Phosphate buffer at pH 7.4 after 16 hrs by HPLC analysis; type: physicochemical; conditions: phosphate buffer, pH 7.4; read-out: Therm_solubility
Cytochrome P450 3A4 = Cytochrome P450 3A4 (Homo sapiens, UniProt P08684); assay: Inhibition of human recombinant CYP3A4
[6] = Drug metabolism in mouse liver microsomes assessed as compound lability; type: ADME, Microsome; conditions: for metabolised: liver microsomes, read-out: Drug metabolism; for Drug metabolism: microsomes
[7] = biological target: Phosphatidylinositol 4,5-bisphosphate 3-kinase catalytic subunit gamma isoform (Homo sapiens, UniProt P48736); assay: Inhibition of human PI3Kgamma after 15 mins
[8] = Drug metabolism in human liver microsomes assessed as compound lability; type: ADME; conditions: liver microsomes, read-out: Drug metabolism
[9] = biological target: T2, Phosphatidylinositol 4,5-bisphosphate 3-kinase catalytic subunit delta isoform (Homo sapiens, UniProt O00329); assay: Inhibition of human PI3Kdelta after 15 mins
T2 sequence (O00329 whole entry): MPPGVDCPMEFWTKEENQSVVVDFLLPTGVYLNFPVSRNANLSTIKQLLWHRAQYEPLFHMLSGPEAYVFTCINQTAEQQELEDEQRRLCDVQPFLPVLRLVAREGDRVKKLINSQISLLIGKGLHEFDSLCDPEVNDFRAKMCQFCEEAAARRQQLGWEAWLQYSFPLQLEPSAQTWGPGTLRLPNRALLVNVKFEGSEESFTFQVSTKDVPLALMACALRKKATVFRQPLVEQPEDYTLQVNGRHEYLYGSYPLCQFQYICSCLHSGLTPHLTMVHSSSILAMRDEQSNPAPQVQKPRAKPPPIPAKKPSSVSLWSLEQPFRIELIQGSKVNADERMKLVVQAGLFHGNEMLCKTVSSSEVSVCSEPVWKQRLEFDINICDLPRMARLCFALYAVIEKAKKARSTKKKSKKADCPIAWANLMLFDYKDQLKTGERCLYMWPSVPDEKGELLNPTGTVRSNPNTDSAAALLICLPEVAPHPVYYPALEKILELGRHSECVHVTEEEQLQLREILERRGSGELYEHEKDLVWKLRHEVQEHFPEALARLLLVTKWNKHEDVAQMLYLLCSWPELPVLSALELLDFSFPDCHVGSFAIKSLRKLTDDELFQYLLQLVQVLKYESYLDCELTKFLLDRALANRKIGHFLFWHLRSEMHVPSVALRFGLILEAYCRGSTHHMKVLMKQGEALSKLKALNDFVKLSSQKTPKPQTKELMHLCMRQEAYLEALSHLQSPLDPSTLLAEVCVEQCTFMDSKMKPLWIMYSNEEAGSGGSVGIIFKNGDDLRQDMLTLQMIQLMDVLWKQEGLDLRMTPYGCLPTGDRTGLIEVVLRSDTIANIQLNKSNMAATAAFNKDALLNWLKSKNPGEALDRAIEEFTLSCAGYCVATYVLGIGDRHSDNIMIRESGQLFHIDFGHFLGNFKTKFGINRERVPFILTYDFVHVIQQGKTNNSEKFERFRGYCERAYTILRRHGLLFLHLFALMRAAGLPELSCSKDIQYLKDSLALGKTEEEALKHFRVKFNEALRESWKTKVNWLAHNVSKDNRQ

Mus musculus [10] = assay: Inhibition of PI3Kbeta in SCID mouse harboring human PTEN-deficient PC3 cells assessed as Akt phosphorylation at S473 at 150 mg/kg, po after 1 hr; type: functional, organism-based; design: dose 150 mg/kg; conditions: PC-3
Mus musculus [11] = assay: Inhibition of PI3Kbeta in SCID mouse harboring human PTEN-deficient PC3 cells assessed as Akt phosphorylation at S473 at 150 mg/kg, po after 7 hrs; type: functional, organism-based; design: dose 150 mg/kg; conditions: PC-3
Mus musculus [12] = assay: Inhibition of PI3Kbeta in SCID mouse harboring human PTEN-deficient PC3 cells assessed as Akt phosphorylation at S473 at 150 mg/kg, po after 16 hrs; type: functional, organism-based; design: dose 150 mg/kg; conditions: PC-3
Caco-2 = assay: as §1; type: ADME, cell-based

Sequence of Phosphatidylinositol 4,5-bisphosphate 3-kinase catalytic subunit gamma isoform (P48736 whole entry, canonical isoform): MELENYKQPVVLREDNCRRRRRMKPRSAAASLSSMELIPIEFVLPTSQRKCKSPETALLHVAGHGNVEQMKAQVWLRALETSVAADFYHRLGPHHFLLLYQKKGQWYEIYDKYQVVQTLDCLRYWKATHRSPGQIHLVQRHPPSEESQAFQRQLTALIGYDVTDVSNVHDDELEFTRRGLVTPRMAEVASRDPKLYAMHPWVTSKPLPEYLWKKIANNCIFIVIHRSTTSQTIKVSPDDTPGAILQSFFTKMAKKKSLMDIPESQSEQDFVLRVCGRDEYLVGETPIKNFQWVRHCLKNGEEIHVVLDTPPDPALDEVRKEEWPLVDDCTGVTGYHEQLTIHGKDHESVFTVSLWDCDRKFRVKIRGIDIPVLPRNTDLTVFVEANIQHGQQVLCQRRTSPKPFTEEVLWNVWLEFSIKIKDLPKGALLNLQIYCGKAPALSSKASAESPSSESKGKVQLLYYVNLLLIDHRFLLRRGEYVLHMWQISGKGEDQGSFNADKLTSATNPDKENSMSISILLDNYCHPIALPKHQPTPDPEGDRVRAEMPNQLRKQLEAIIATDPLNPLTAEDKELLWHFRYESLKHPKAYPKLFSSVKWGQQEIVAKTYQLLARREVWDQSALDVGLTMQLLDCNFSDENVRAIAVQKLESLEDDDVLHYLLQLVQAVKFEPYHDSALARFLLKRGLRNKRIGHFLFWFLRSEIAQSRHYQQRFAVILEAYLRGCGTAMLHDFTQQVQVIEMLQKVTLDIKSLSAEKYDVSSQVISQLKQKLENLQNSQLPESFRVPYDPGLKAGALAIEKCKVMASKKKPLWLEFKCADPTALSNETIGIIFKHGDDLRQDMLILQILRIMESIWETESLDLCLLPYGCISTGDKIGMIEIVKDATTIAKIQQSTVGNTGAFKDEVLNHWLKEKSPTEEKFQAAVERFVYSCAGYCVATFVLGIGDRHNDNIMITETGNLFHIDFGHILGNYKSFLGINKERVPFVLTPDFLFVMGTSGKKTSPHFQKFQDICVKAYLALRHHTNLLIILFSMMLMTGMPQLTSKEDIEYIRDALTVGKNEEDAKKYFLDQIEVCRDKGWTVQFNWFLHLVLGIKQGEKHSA
Sequence of Cytochrome P450 3A4 (P08684 whole entry): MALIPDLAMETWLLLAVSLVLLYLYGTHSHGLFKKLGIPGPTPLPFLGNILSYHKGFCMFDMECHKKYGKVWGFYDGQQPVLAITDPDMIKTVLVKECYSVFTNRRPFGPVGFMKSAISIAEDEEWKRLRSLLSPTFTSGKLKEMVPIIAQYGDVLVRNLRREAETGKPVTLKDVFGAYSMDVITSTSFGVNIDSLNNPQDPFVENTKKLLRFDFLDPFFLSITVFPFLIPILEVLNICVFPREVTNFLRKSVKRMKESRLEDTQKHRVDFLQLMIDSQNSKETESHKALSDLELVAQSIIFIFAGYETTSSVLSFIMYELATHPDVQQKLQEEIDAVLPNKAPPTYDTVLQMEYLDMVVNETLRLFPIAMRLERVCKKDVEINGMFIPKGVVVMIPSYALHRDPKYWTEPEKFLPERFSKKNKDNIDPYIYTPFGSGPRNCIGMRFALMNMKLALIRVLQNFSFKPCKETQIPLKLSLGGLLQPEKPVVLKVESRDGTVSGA
Sequence of Phosphatidylinositol 4,5-bisphosphate 3-kinase catalytic subunit alpha isoform (P42336 whole entry, canonical isoform): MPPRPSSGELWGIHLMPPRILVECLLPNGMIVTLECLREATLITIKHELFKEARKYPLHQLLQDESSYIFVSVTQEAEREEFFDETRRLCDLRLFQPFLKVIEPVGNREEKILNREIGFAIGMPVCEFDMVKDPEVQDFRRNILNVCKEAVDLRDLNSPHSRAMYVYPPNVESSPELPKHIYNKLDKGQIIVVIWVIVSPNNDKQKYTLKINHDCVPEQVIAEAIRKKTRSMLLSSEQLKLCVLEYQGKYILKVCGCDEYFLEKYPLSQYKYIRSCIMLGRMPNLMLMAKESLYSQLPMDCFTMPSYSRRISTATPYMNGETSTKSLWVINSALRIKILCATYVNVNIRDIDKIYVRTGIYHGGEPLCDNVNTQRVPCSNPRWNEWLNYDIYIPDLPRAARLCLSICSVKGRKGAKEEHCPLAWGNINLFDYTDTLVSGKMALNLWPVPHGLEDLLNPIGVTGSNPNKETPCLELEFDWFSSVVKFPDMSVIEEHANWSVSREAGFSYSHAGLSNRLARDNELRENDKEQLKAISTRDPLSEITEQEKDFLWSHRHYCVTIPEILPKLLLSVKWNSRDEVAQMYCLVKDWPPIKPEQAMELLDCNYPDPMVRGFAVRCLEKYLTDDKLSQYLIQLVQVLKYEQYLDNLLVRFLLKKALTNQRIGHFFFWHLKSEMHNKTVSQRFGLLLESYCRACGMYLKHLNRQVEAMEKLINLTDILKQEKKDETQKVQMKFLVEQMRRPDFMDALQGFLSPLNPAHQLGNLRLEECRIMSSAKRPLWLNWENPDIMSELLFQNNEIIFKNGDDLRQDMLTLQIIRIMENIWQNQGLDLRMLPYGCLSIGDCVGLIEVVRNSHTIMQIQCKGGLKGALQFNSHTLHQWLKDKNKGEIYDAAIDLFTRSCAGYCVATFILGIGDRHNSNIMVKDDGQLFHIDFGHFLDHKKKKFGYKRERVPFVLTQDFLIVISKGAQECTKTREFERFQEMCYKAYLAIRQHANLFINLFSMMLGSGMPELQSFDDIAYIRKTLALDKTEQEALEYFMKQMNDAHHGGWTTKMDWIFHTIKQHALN
T1 sequence (P42338 whole entry, canonical isoform): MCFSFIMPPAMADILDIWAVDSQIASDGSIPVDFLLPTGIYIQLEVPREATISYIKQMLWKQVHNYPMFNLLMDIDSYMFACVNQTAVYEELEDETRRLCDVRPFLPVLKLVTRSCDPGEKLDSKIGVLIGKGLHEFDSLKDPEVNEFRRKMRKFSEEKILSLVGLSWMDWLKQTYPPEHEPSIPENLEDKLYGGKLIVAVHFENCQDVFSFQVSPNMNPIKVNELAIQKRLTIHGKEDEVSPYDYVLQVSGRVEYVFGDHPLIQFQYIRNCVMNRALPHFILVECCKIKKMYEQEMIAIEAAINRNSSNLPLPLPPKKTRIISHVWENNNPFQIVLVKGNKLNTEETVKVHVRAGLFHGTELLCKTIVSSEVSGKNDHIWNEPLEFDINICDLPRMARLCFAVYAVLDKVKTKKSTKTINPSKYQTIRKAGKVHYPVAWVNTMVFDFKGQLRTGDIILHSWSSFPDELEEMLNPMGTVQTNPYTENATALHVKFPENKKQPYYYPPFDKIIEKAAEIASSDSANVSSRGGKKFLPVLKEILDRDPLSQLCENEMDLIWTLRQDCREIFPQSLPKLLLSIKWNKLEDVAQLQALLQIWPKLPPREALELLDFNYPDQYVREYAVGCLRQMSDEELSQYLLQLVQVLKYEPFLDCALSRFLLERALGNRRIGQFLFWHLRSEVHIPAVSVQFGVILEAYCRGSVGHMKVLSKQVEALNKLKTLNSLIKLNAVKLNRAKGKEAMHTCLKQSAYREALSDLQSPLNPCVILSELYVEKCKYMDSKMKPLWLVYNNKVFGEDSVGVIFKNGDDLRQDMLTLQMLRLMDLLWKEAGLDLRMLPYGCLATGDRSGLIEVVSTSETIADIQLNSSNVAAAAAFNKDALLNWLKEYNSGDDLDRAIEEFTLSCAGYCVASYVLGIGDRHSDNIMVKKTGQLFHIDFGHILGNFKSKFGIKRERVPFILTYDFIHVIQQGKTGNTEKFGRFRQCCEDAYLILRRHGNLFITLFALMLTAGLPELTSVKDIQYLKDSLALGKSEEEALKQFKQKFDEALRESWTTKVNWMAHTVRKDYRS

SMILES	pIC50 [1]	pIC50 [2]	pIC50 [3]	Papp [4] [×10⁻⁶ cm/s]	solubility thermodynamic at 16 h [5] [µM]	pIC50 (Cytochrome P450 3A4)	metabolised [6] [%]	pIC50 [7]	metabolised [8] [%]	pIC50 [9]	Drug metabolism [6] [%]	Papp (Caco-2) [×10⁻⁶ cm/s]	inhibition (Mus musculus [10])	inhibition (Mus musculus [11])	inhibition (Mus musculus [12])
NC(=O)c1sc(N2CCOCC2)nc1CC(=O)N1CCc2cc(Br)ccc21	6.38	6.62	< 5.00	–	–	–	–	< 5.00	–	6.32	–	–	–	–	–
NC(=O)c1sc(N2CCOCC2)nc1CC(=O)N1CCc2c(F)cccc21	7.42	6.86	5.14	–	–	–	–	< 5.00	–	6.31	–	–	–	–	–
NC(=O)c1sc(N2CCOCC2)nc1CC(=O)Nc1ccc(F)c(Cl)c1	–	7.35	5.08	–	–	–	–	< 5.00	–	6.64	–	–	–	–	–
O=C(O)c1sc(N2CCOCC2)nc1CC(=O)N1CCc2cc(Br)ccc21	5.52	6.51	< 5.00	–	–	–	–	< 5.00	–	6.00	–	–	–	–	–
CC1Cc2c(Br)cccc2N1C(=O)Cc1nc(N2CCOCC2)sc1C(=O)O (single isomer, unassigned; enantiomer 1)	–	–	–	–	–	–	–	–	–	–	–	–	Active	Active	Active
NC(=O)c1sc(N2CCOCC2)nc1CC(=O)N1CCc2c(Cl)cccc21	6.91	7.31	5.20	–	2 (≈ 0.814 µg/mL)	4.40	61	< 5.00	40	6.56	–	–	–	–	–
O=C(O)c1sc(N2CCOCC2)nc1CC(=O)N1CCc2ccccc21	5.85	6.57	< 5.00	–	–	–	–	< 5.00	–	5.81	–	–	–	–	–
CC1Cc2ccccc2N1C(=O)Cc1nc(N2CCOCC2)sc1C(N)=O (racemic)	7.40	6.75	< 5.00	–	–	–	–	< 5.00	–	6.36	–	–	–	–	–
NC(=O)c1sc(N2CCOCC2)nc1CC(=O)N1CCc2cc(Cl)ccc21	6.96	6.78	< 5.00	–	–	–	–	< 5.00	–	5.73	–	–	–	–	–
CC1Cc2ccccc2N1C(=O)Cc1nc(N2CCOCC2)sc1C(=O)O (racemic)	5.64	6.47	< 5.00	–	–	–	–	< 5.00	–	5.56	–	–	–	–	–
CC1Cc2c(Br)cccc2N1C(=O)Cc1nc(N2CCOCC2)sc1C(=O)O (single isomer, unassigned; enantiomer 2)	6.51	7.08	5.51	–	4290 (≈ 2000 µg/mL)	4.40	–	5.00	0	6.06	7	0.4	–	–	–
NC(=O)c1sc(N2CCOCC2)nc1CC(=O)N1CCc2ccccc21	7.60	7.15	5.39	16	3 (≈ 1.12 µg/mL)	4.40	44	< 5.00	35	6.64	–	–	–	–	–
CC1CN(C(=O)Cc2nc(N3CCOCC3)sc2C(N)=O)c2ccccc21 (racemic)	7.12	6.89	< 5.00	–	–	–	–	5.38	–	6.25	–	–	–	–	–

More lines, in order of rising pIC50 [2], values ahead:

pIC50 [1]	pIC50 [2]	pIC50 [3]	Papp [4] [×10⁻⁶ cm/s]	solubility thermodynamic at 16 h [5] [µM]	pIC50 (Cytochrome P450 3A4)	metabolised [6] [%]	pIC50 [7]	metabolised [8] [%]	pIC50 [9]	Drug metabolism [6] [%]	Papp (Caco-2) [×10⁻⁶ cm/s]	SMILES	inhibition (Mus musculus [10])	inhibition (Mus musculus [11])	inhibition (Mus musculus [12])
5.70	7.64	5.66	0.7	1480 (≈ 602 µg/mL)	4.40	9	< 5.00	1	6.61	–	–	O=C(O)c1sc(N2CCOCC2)nc1CC(=O)N1CCc2c(Cl)cccc21	–	–	–
7.85	7.70	< 5.00	19.3	45 (≈ 18.2 µg/mL)	7.40	48	< 5.00	42	6.90	–	–	CC1Cc2cc(F)ccc2N1C(=O)Cc1nc(N2CCOCC2)sc1C(N)=O (stereo not drawn)	–	–	–
6.09	7.82	< 5.00	0.9	4930 (≈ 2000 µg/mL)	4.40	3	< 5.00	3	6.66	–	–	CC1Cc2cc(F)ccc2N1C(=O)Cc1nc(N2CCOCC2)sc1C(=O)O (stereo not drawn)	–	–	–
8.52	7.89	5.88	20.9	–	4.60	–	5.49	85	7.04	89	–	CC1Cc2c(Br)cccc2N1C(=O)Cc1nc(N2CCOCC2)sc1C(N)=O (single isomer, unassigned; (-))	–	–	–
5.75	7.96	5.95	0.2	–	4.40	0	< 5.00	8	6.88	–	–	O=C(O)c1sc(N2CCOCC2)nc1CC(=O)N1CCc2c(Br)cccc21	–	–	–
7.66	7.96	5.67	24.7	2 (≈ 0.903 µg/mL)	4.40	63	5.09	57	6.75	–	–	NC(=O)c1sc(N2CCOCC2)nc1CC(=O)N1CCc2c(Br)cccc21	–	–	–
7.89	8.00	< 5.00	29.6	2 (≈ 0.842 µg/mL)	–	70	< 5.00	77	7.24	–	–	CC1Cc2c(Cl)cccc2N1C(=O)Cc1nc(N2CCOCC2)sc1C(N)=O (stereo not drawn)	–	–	–
6.06	8.10	< 5.00	0.9	4740 (≈ 2000 µg/mL)	4.40	17	< 5.00	8	6.83	–	–	CC1Cc2c(Cl)cccc2N1C(=O)Cc1nc(N2CCOCC2)sc1C(=O)O (stereo not drawn)	–	–	–
